# Measurements published in patent US5286492A, “Method of treatment of Heliobacter pylori infections with triclosan” (Reckitt & Colman Products Limited, priority 1990, dated 1994).
# Like-named read-outs stand apart in the source and are kept apart here.
# Legend:
# [1] = test system: Helicobacter pylori; assay: MIC50/MIC90 versus Helicobacter pylori by agar dilution technique at neutral pH; assay type: cell-based; conditions: for activity compared with the twelve agents tested: Table 1
# Procedure: (§1) The in vitro activities of a range of antimicrobial compounds versus Helicobacter pylori were determined by methods based on those of McNulty et al (Antimicrobial Agents and Chemotherapy, 28, 837-838, 1985). The Minimum Inhibitory concentrations for 50% and 90% of the strains used (MIC50 and MIC90), versus each antimicrobial were determined using an agar dilution technique.
# (§2) The MIC of an antimicrobial agent was defined as that concentration (in mg per liter of agar) at which less than 1 in 10^5 organisms produced visible colonies.
# (§3) Helicobacter pylori strains were isolated from gastric antrum biopsy specimens taken at routine endoscopy during investigation of upper gastrointestinal symptoms. They were identified as Helicobacter pylori by their colonial morphology, gram stain appearance and positive rapid urease test. The organisms were stored in liquid nitrogen before use and subcultured for testing by 48 hour incubation, at 37° C. under 10% carbon dioxide in Tryptone Soya Broth (TSB, OXOID, UK) plus 5% horse serum (Tissue Culture Services, UK).
# The first test procedure determined the effectiveness of a range of antimicrobial substances versus 16 to 18 strains of Helicobacter pylori at neutral pH. Freshly prepared Isosensitest Agar of pH 7.2 (Oxoid, UK) supplemented with 10% saponinlysed horse blood was used to prepare a dilution series of each antimicrobial from which agar plates were produced. A multipoint inoculator (Denley-Tech, UK) was used to deliver 1 µl of undiluted test culture to the surface of each plate in the dilution series to give approximately 10^6 cfu/spot. The plates were incubated for three days at 37° C. in a microaerobic atmosphere of 6% oxygen and 10% carbon dioxide.
# [2] = test system: Helicobacter pylori; assay: Effect of pH (5 to 8) on activity (MIC90) against Helicobacter pylori, agar dilution; assay type: cell-based; conditions: for MIC / MIC90: Helicobacter pylori; for activity compared among the three agents (in words) / effect of pH on activity (in words): pH range 5 to 8
# Procedure: as §1, §2, §3
# The three selected agents were triclosan, clioquinol (5-chloro-7-iodo-8-hydroxy-quinolone) and cetalkonium chloride.
# In the test procedure, Sorensens phosphate buffer (0.1M) was used to prepare the range of pH values 5, 5.5, 6, 6.5, 7, 7.5 and 8. Oxoid Columbia Agar Base (CM331) was added and the media autoclaved. After cooling to 50° C., 7% Lysed Horse Blood (Tissue Culture Services, UK) was added and media at each pH was used to prepare a range of concentrations of the three selected test antimicrobial agents. To ensure pH stability, a surface pH electrode was used to monitor control plates before, during and at the end of the three day microaerobic incubation.
# The MIC90 was determined for each at each pH as described in the previous test procedure.
# [3] = test system: Helicobacter pylori; conditions: cited from earlier work
# [4] = test system: Helicobacter pylori infection; conditions: by twelve months post therapy; cited from earlier work
# [5] = Helicobacter pylori, 72 h, eighteen isolates, neutral pH (agar pH 7.2), read-out: MIC50
# [6] = Helicobacter pylori, eighteen isolates, neutral pH (agar pH 7.2), read-out: MIC Range
# [7] = pH 5.0, sixteen isolates (triclosan, clioquinol) or eighteen (cetalkonium chloride), read-out: MIC90
# [8] = pH 5.0, sixteen isolates (triclosan, clioquinol) or eighteen (cetalkonium chloride), read-out: MIC Range
# [9] = pH 5.5, sixteen isolates (triclosan, clioquinol) or eighteen (cetalkonium chloride), read-out: MIC90
# [10] = pH 5.5, sixteen isolates (triclosan, clioquinol) or eighteen (cetalkonium chloride), read-out: MIC Range
# [11] = pH 6.0, sixteen isolates (triclosan, clioquinol) or eighteen (cetalkonium chloride), read-out: MIC90
# [12] = pH 6.0, sixteen isolates (triclosan, clioquinol) or eighteen (cetalkonium chloride), read-out: MIC Range
# [13] = pH 6.5, sixteen isolates (triclosan, clioquinol) or eighteen (cetalkonium chloride), read-out: MIC90
# [14] = pH 7.0, sixteen isolates (triclosan, clioquinol) or eighteen (cetalkonium chloride), read-out: MIC90
# [15] = pH 7.0, sixteen isolates (triclosan, clioquinol) or eighteen (cetalkonium chloride), read-out: MIC Range
# [16] = pH 7.5, sixteen isolates (triclosan, clioquinol) or eighteen (cetalkonium chloride), read-out: MIC90
# [17] = pH 7.5, sixteen isolates (triclosan, clioquinol) or eighteen (cetalkonium chloride), read-out: MIC Range
# [18] = pH 8.0, sixteen isolates (triclosan, clioquinol) or eighteen (cetalkonium chloride), read-out: MIC90
# [19] = Helicobacter pylori, pH 7.2, read-out: MIC Range
# [20] = Helicobacter pylori, eighteen isolates, neutral pH (agar pH 7.2), read-out: MIC90
# [21] = eighteen isolates, neutral pH (agar pH 7.2)
compound,measurement,setting,value
CCCCCCc1ccc(O)cc1O [4-Hexylresorcinol],MIC50,[1]; [5],32 µg/mL
same,MIC90,"[1]; Helicobacter pylori, pH 7.2",32 µg/mL
same,MIC,[1]; [6],16 to 32 µg/mL
CCCCCCCCCCCCCCCC[N+](C)(C)Cc1ccccc1 [Cetalkonium Cl],MIC,"[2]; pH 8, read-out: MIC Range",1 to 8 µg/mL
same,MIC90,[2]; [7],1 µg/mL
same,MIC,[2]; [8],0.5 to 2 µg/mL
same,MIC90,[2]; [9],2 µg/mL
same,MIC,[2]; [10],0.5 to 2 µg/mL
same,MIC90,[2]; [11],2 µg/mL
same,MIC,[2]; [12],1 to 4 µg/mL
same,MIC90,[2]; [13],4 µg/mL
same,MIC,"[2]; pH 6.5, sixteen isolates (triclosan, clioquinol) or eighteen (cetalkonium chloride), read-out: MIC Range",2 to 4 µg/mL
same,MIC90,[2]; [14],4 µg/mL
same,MIC,[2]; [15],2 to 4 µg/mL
same,MIC90,[2]; [16],4 µg/mL
same,MIC,[2]; [17],1 to 4 µg/mL
same,MIC90,[2]; [18],2 µg/mL
same,activity compared among the three agents (in words),[2],demonstrated similar MIC90 activity profiles across the pH range
same,effect of pH on activity (in words),[2],largely unaffected by pH over the range 5 to 8
same,MIC50,[1]; [5],2 µg/mL
same,MIC,[1]; [19],2 to 4 µg/mL
same,MIC90,[1]; [20],4 µg/mL
"Oc1c(I)cc(Cl)c2cccnc12 [Clioquinol, 5-chloro-7-iodo-8-hydroxy-quinolone]",MIC,"[2]; pH 6.5, read-out: MIC Range",0.5 to 16 µg/mL
same,MIC,"[2]; pH 8, read-out: MIC Range",0.5 to 2 µg/mL
same,MIC90,[2]; [7],2 µg/mL
same,MIC,[2]; [8],0.5 to 4 µg/mL
same,MIC90,[2]; [9],8 µg/mL
same,MIC,[2]; [10],2 to 8 µg/mL
same,MIC90,[2]; [11],8 µg/mL
same,MIC,[2]; [12],2 to 8 µg/mL
same,MIC90,[2]; [13],8 µg/mL
same,MIC90,[2]; [14],2 µg/mL
same,MIC,[2]; [15],0.5 to 4 µg/mL
same,MIC90,[2]; [16],2 µg/mL
same,MIC,[2]; [17],0.5 to 4 µg/mL
same,MIC90,[2]; [18],1 µg/mL
same,MIC50,[1]; [5],16 µg/mL
same,MIC,[1]; [19],8 to 16 µg/mL
same,MIC90,[1]; [20],16 µg/mL
Oc1ccc(Cl)cc1Cc1cc(Cl)ccc1O [Dichlorphen],MIC50,[1]; [5],16 µg/mL
same,MIC90,[1]; [20],16 µg/mL
same,MIC,[1]; [6],8 to 16 µg/mL
COc1ccccc1O [Guaiacol],MIC50,[1]; [5],64 µg/mL
same,MIC90,[1]; [20],64 µg/mL
same,MIC,[1]; [6],32 to 128 µg/mL
CCCCC(CC)CN1CN(CC(CC)CCCC)CC(C)(N)C1 (stereo not drawn) [Hexetidine],MIC50,[1]; [5],16 µg/mL
same,MIC90,[1]; [20],16 µg/mL
same,MIC,[1]; [6],8 to 16 µg/mL
N=C(NCCCCCCNC(=N)NC(=N)Nc1ccc(Cl)cc1)NC(=N)Nc1ccc(Cl)cc1 [Hibitane],MIC50,[1]; [5],32 µg/mL
same,MIC90,[1]; [20],32 µg/mL
same,MIC,[1]; [6],16 to 32 µg/mL
Cc1cc(O)cc(C)c1Cl [PCMX],MIC50,[1]; [5],32 µg/mL
same,MIC90,[1]; [20],64 µg/mL
same,MIC,[1]; [6],8 to 64 µg/mL
CCS(=O)(=O)CCn1c([N+](=O)[O-])cnc1C [Tinidazole],MIC50,[1]; [5],0.5 µg/mL
same,MIC,"[1]; Helicobacter pylori, 72 h, fifteen of eighteen isolates, neutral pH, read-out: MIC of sensitive isolates",< 2 µg/mL
same,MIC,"[1]; Helicobacter pylori, 72 h, three of eighteen strains, neutral pH, read-out: MIC of strains demonstrating evidence of resistance",16 µg/mL
same,MIC90,[1]; [20],16 µg/mL
same,MIC,[1]; [6],0.25 to 16 µg/mL
same,distribution of MICs,"[1]; eighteen isolates, neutral pH",bimodal distribution of MICs
same,activity compared with the twelve agents tested,[1]; neutral pH,demonstrated the greatest activity of the twelve antimicrobial agents tested
"Oc1cc(Cl)ccc1Oc1ccc(Cl)cc1Cl [Triclosan, 2-hydroxy-4,2',4'-trichloro-diphenyl ether]",MIC90,[2]; pH 5,0.25 µg/mL
same,MIC,"[2]; pH 5, read-out: MIC Range",0.06 to 0.25 µg/mL
same,MIC90,[2]; pH 5.5,1 µg/mL
same,MIC,"[2]; pH 5.5, read-out: MIC Range",0.06 to 1 µg/mL
same,MIC90,[2]; pH 6,1 µg/mL
same,MIC,"[2]; pH 6, read-out: MIC Range",0.12 to 2 µg/mL
same,MIC90,[2]; pH 6.5,2 µg/mL
same,MIC,"[2]; pH 6.5, read-out: MIC Range",0.12 to 4 µg/mL
same,MIC90,[2]; pH 7,2 µg/mL
same,MIC,"[2]; pH 7, read-out: MIC Range",0.06 to 4 µg/mL
same,MIC90,[2]; pH 7.5,2 µg/mL
same,MIC,"[2]; pH 7.5, read-out: MIC Range",0.06 to 4 µg/mL
same,MIC90,[2]; pH 8,2 µg/mL
same,MIC,"[2]; pH 8, read-out: MIC Range",0.06 to 2 µg/mL
same,activity compared among the three agents (in words),[2],demonstrated the greatest activity
same,effect of pH on activity (in words),[2],low at pH 5.0 and unaffected in the range pH 5.5 to 8.0
same,MIC50,"[1]; Helicobacter pylori, 72 h, pH 7.2",1 µg/mL
same,MIC90,"[1]; Helicobacter pylori, pH 7.2",8 µg/mL
same,MIC,[1]; [19],0.25 to 16 µg/mL
same,activity compared with the twelve agents tested,[1]; neutral pH,demonstrated the greatest activity of the twelve antimicrobial agents tested
O=C([O-])CC(O)(CC(=O)[O-])C(=O)[O-].O=C([O-])CC(O)(CC(=O)[O-])C(=O)[O-].[Bi+3].[K+].[K+].[K+] [bismuth subcitrate],reported MIC90,[3]; neutral pH,16 µg/mL
Cc1ncc([N+](=O)[O-])n1CCO [metronidazole],distribution of MICs (previously reported),[3],bimodal distribution
Halquinol,MIC50,[1]; [21],16 µg/mL
same,MIC90,[1]; [21],16 µg/mL
same,MIC Range,[1]; [21],16 µg/mL
bismuth,recurrence of the infection,[4],~100%
